# Laboratory results as given in patent US20230265091A1, “COMPOUNDS WHICH INHIBIT RNA POLYMERASE” (The Johns Hopkins University, priority 2020, published 2023).
# Where a name gives a salt, the structure may show the parent alone.
# Test system: RPA194 (RNA polymerase I, Pol I)
# Assay: RPA194 destruction / Pol I inhibition, high-content imaging in A375 cells
# Format: cell-based
# Details: A375 cells treated for 4 hours, top concentration 10 μM; anti-RPA194 immunofluorescence; pIC50 >= 5.02 deemed a Pol I inhibitor
# Procedure: Cell culture: A375 cells (CRL-1619, ATCC) were grown in DMEM (GTBCO) supplemented with […] fetal bovine serum (GIBCO) in 5% CO2 at 37° C.
# Cell treatment and Imaging: 18 hours post-seeding in cell carrier black 384-well plates (PerkinElmer) at 15 000 cells/well, A375 cells were treated for 4 hours with a positive control or test compounds (9 serial semi-log dilutions, top concentration 10 μM). Upon treatment A375 cells were (i) fixed for 15 min at RT with 4% of paraformaldehyde, (ii) permeabilized for 20 min at RT with 0.1-0.5% of NP-40, (iii) incubated with primary antibodies at 4° C.: anti-RPA194 (1:1000-1:1250 dilution, sc-48385, Santa Cruz Biotechnology) and anti-gH2Ax (1:5000 dilution, 81299, Abcam or 1:4000, JBW302, Millipore) (iv) incubated for 1 h at RT with Hoechst (1:5000 dilution, H3570, ThermoFisher) and secondary antibodies: anti-mouse-AlexaFluor488 (1:2000 dilution, A11001, ThermoFisher) and anti-rabbit-AlexaFluor647 (1:2000 dilution, A21443, ThermoFisher) or goat anti-mouse AlexaFluor-594 (1:1000 dilution). Images were acquired on an Operetta CLS High-Content Analysis System (PerkinElmer) (40× objective; 9 fields/well) and processed using the Columbus Image Analysis System (PerkinElmer) or by using Molecular Devices ImageXpress Micro XLS High Content Imager and MetaXpress high-content acquisition and analysis software.
# In the table below, (+) is associated with a pIC50 5.02 to 5.8; (++) with pIC50 5.8 to 6.3; and plus sing (+++) with a pIC50 above 6.3.
row,Compound,Activity Range (pIC50)
1,"O=C(NCCN1CCSCC1)c1cccn2c(=O)c3cc4ccccc4cc3nc12 [Compound 112, 12-oxo-N-(2-thiomorpholinoethyl)-12H-benzo[g]pyrido[2,1-b]quinazoline-4-carboxamide hydrochloride]",+ ((+) is associated with a pIC50 5.02 to 5.8)
2,"CC(NC(=O)c1cccn2c(=O)c3cc4ccccc4cc3nc12)C1CCCCN1 (centres unmarked) [Compound 103, 12-oxo-N-(1-(piperidin-2-yl)ethyl)-12H-benzo[g]pyrido[2,1-b]quinazoline-4-carboxamide hydrochloride]",++ ((++) with pIC50 5.8 to 6.3)
3,"CN(CCC#N)CCNC(=O)c1cccn2c(=O)c3cc4ccccc4cc3nc12 [Compound 114, N-(2-((2-cyanoethyl)(methyl)amino)ethyl)-12-oxo-12H-benzo[g]pyrido[2,1-b]quinazoline-4-carboxamide hydrochloride]",+ ((+) is associated with a pIC50 5.02 to 5.8)
4,"O=C(NCC1CCCN1)c1cccn2c(=O)c3cc4ccccc4cc3nc12 (centres unmarked) [Compound 102, 12-oxo-N-(pyrrolidin-2-ylmethyl)-12H-benzo[g]pyrido[2,1-b]quinazoline-4-carboxamide trifluoroacetate]",++ ((++) with pIC50 5.8 to 6.3)
5,"CCN1CCCCC1CNC(=O)c1cccn2c(=O)c3cc4ccccc4cc3nc12 (centres unmarked) [Compound 105, N-((1-ethylpiperidin-2-yl)methyl)-12-oxo-12H-benzo[g]pyrido[2,1-b]quinazoline-4-carboxamide hydrochloride]",++ ((++) with pIC50 5.8 to 6.3)
6,"CN1CCCC1CNC(=O)c1cccn2c(=O)c3cc4ccccc4cc3nc12 (centres unmarked) [Compound 107, N-((1-methylpyrrolidin-2-yl)methyl)-12-oxo-12H-benzo[g]pyrido[2,1-b]quinazoline-4-carboxamide hydrochloride]",+ ((+) is associated with a pIC50 5.02 to 5.8)
7,"CC(C)N1CCCCC1CNC(=O)c1cccn2c(=O)c3cc4ccccc4cc3nc12 (centres unmarked) [Compound 106, N-((1-isopropylpiperidin-2-yl)methyl)-12-oxo-12H-benzo[g]pyrido[2,1-b]quinazoline-4-carboxamide hydrochloride]",+ ((+) is associated with a pIC50 5.02 to 5.8)
8,"O=C(NCCN1CC[C@H](O)C1)c1cccn2c(=O)c3cc4ccccc4cc3nc12 [Compound 109, (S)-N-(2-(3-hydroxypyrrolidin-1-yl)ethyl)-12-oxo-12H-benzo[g]pyrido[2,1-b]quinazoline-4-carboxamide hydrochloride]",++ ((++) with pIC50 5.8 to 6.3)
9,"O=C(NCC1CCCCN1)c1cccn2c(=O)c3cc4ccccc4cc3nc12 (centres unmarked) [Compound 104, 12-oxo-N-(piperidin-2-ylmethyl)-12H-benzo[g]pyrido[2,1-b]quinazoline-4-carboxamide hydrochloride]",++ ((++) with pIC50 5.8 to 6.3)
10,"O=C(NCCN1CCC(F)CC1)c1cccn2c(=O)c3cc4ccccc4cc3nc12 [Compound 116, N-(2-(4-fluoropiperidin-1-yl)ethyl)-12-oxo-12H-benzo[g]pyrido[2,1-b]quinazoline-4 carboxamide hydrochloride]",++ ((++) with pIC50 5.8 to 6.3)
11,"CN1CCOCC1CNC(=O)c1cccn2c(=O)c3cc4ccccc4cc3nc12 (centres unmarked) [Compound 108, N-((4-methylmorpholin-3-yl)methyl)-12-oxo-12H-benzo[g]pyrido[2,1-b]quinazoline-4-carboxamide hydrochloride]",+ ((+) is associated with a pIC50 5.02 to 5.8)
12,"N#CC1CCN(CCNC(=O)c2cccn3c(=O)c4cc5ccccc5cc4nc23)CC1 [Compound 111, N-(2-(4-cyanopiperidine-1-yl)ethyl)-12-oxo-12H-benzo[g]pyrido[2,1-b]quinazoline-4-carboxamide hydrochloride]",+ ((+) is associated with a pIC50 5.02 to 5.8)
13,"O=C(NCC1CCCC(CO)N1)c1cccn2c(=O)c3cc4ccccc4cc3nc12 (centres unmarked) [Compound 101, N-((6-(hydroxymethyl)piperidin-2-yl)methyl)-12-oxo-12H-benzo[g]pyrido[2,1-b]quinazoline-4-carboxamide hydrochloride]",++ ((++) with pIC50 5.8 to 6.3)
14,"O=C(NCCN1CCC(F)C1)c1cccn2c(=O)c3cc4ccccc4cc3nc12 (centres unmarked) [Compound 117, N-(2-(3-fluoropyrrolidin-1-yl)ethyl)-12-oxo-12H-benzo[g]pyrido[2,1-b]quinazoline-4-carboxamide hydrochloride]",+ ((+) is associated with a pIC50 5.02 to 5.8)
15,"O=C(NCCN1CCC(O)(O)CC1)c1cccn2c(=O)c3cc4ccccc4cc3nc12 [Compound 113, N-(2-(4,4-dihydroxypiperidin-1-yl)ethyl)-12-oxo-12H-benzo[g]pyrido[2,1-b]quinazoline-4-carboxamide hydrochloride]",++ ((++) with pIC50 5.8 to 6.3)
16,"COC(=O)N1CCN(CCNC(=O)c2cccn3c(=O)c4cc5ccccc5cc4nc23)CC1 [Compound 115, methyl 4-(2-(12-oxo-12H-benzo[g]pyrido[2,1-b]quinazoline-4-carboxamido)ethyl)piperazine-1-carboxylate hydrochloride]",+ ((+) is associated with a pIC50 5.02 to 5.8)
17,"O=C(NCCN1CC[C@@H](O)C1)c1cccn2c(=O)c3cc4ccccc4cc3nc12 [Compound 110, (R)-N-(2-(3-hydroxypyrrolidin-1-yl)ethyl)-12-oxo-12H-benzo[g]pyrido[2,1-b]quinazoline-4-carboxamide hydrochloride]",+++ ((+++) with a pIC50 above 6.3)
